One assay deals with Tau, Fyn. Briefly: Western blot of Tau, Fyn and GAPDH levels in neurons. The assay is classed as cell-based, rat. The conditions noted are these: 15 μM, 24 hours. The procedure:
Like before (Rush, et al. (2020) Neurobiol Dis 134, 104668), at DIV13, neurons were treated with 15 μM compound no. 69 or Vehicle. 24 hours later, cells were harvested in lysis buffer (50 mM Tris, 150 mM NaCl, 5 mM EDTA, 0.1% SDS, 0.1% Triton-X-100, and 0.5% sodium deoxycholate) and centrifuged to remove cellular debris. Samples were diluted in LDS and reducing agent and heated at 70° C. for 10 minutes. Samples were run on 4-12% bis-tris gels in MOPS buffer with 5 μg protein per well, determined by a Bradford assay, then transferred to a PDVF membrane. Membrane was blocked for 1 hour in 50% Odysey blocking buffer then probed overnight with Fyn3 (1:1000) antibody at 4° C. Membrane was washed 3× in TBST, then incubated for 1 hour at RT in IRDye 700 or 800 conjugated secondary and scanned on an Odyssey Scanner. Images were quantified in ImageJ. After probing for GAPDH (1:5,000), the blot was stripped with Restore PLUS Western Blot Sripping Buffer for 30 minutes at room temperature, washed in TBST, and probed for DAKO Tau (1:10,000).

The next assay concerns the target Tau-FynSH3 interaction (Homo sapiens (Human), UniProt P10636). Briefly: Tau-Flag PLA, Tau-FynSH3. The assay is classed as cell-based. The procedure: (§1) Tau-Flag PLA for Tau-SH3 interactions: To clone the SH3 constructs, a C-terminal Flag tag was added to the Tau construct using PCR, then the Tau sequence was replaced with the desired SH3 domain using In-Fusion HD cloning kit (Takara Bio). Next, an N-terminal GST tag was added to help expression using In-Fusion, resulting in GST-SH3-Flag plasmids. As a negative control, restriction enzymes were used to remove the FynSH3 from the FynSH3 construct, resulting in GST-Flag. All sequences were confirmed with Sanger sequencing, and expression in HEK-293 cells was verified by western blot and immunocytochemistry. Plating and experimental timeline was the same as above. Cells were transfected with 125 ng of Tau-mKate2 and 500 ng SH3 plasmid with 1.5 μL Fugene. compound no. 69 was applied to final concentration 15 μM. For Tau-SH3 PLA, we used Dako Tau (1:1000) and Flag (1:1000) primary antibodies.

The next assay has as its target Tau-SrcSH3 interaction (Homo sapiens (Human), UniProt P10636). As to the kind of experiment: Tau-Flag PLA, Tau-SrcSH3. The assay is classed as cell-based. The settings on record: 15 μM, HEK-293 cells. The procedure:
as §1

The target in another assay is Tau-BIN1SH3 interaction (Homo sapiens (Human), UniProt P10636). As to the kind of experiment: Tau-Flag PLA, Tau-BIN1SH3. The assay is classed as cell-based. The conditions noted are these: 15 μM, HEK-293 cells. The protocol: as §1
The subject of a further assay is primary neurons. As to the kind of experiment: Multi-electrode array, Aβ-induced network hyperexcitability. The assay is classed as cell-based, rat. The conditions noted are these: one hour preincubation, 500 nM Aβ oligomers, four hours. The source says: Primary neuron cultures: All animal procedures were approved by the Institutional Animal Care and Use Committee at the University of Alabama at Birmingham (UAB). As before (Rush, et al. (2020) Neurobiol Dis 134, 104668; Voskobiynyk, et al. (2020) eLife 9, e57354), primary rat neurons were isolated from timed-pregnant Sprague-Dawley rats. Briefly, dams were euthanized with isoflurane anesthesia asphyxiation, and hippocampal tissue was isolated from E19 embryos in Hibernate E, then digested in papain for 10 minutes at 37° C. Neurons were triturated into a single cell suspension in Neurobasal supplemented with B-27, L-Glutamine, and 10% FBS, then plated in 96-well plates coated with PDL and laminin at 30,000 neurons per well in 200 uL medium or in 24-well coated plates with or without coverslips at 50,000 per well. Cultures were maintained at 37° C. with 5% CO2. […]
Multi-electrode arrays: As in a prior study (Voskobiynyk, et al. (2020) eLife 9, e57354), 30,000 neurons were plated per well in a 48-well MEA plate. […] 69 for one hour, then 500 nM Aβ oligomers was applied and neurons were returned to the incubator for four hours before being recorded for 20 more minutes. […] Mean baseline frequency for each well was calculated from unit frequencies, then each unit in the post-treatment recording was normalized to the baseline average of its well. […]

The text below walks through data of patent publication US20250367209A1 (SOUTHERN RESEARCH INSTITUTE, priority 2022, published 2025).

SMILES strings stand for the structures. Entries after “also recorded” stand apart in the source; their conditions may differ.

Chain of Tau-FynSH3 interaction (P10636 other isoform, or with tags, fused parts or gaps): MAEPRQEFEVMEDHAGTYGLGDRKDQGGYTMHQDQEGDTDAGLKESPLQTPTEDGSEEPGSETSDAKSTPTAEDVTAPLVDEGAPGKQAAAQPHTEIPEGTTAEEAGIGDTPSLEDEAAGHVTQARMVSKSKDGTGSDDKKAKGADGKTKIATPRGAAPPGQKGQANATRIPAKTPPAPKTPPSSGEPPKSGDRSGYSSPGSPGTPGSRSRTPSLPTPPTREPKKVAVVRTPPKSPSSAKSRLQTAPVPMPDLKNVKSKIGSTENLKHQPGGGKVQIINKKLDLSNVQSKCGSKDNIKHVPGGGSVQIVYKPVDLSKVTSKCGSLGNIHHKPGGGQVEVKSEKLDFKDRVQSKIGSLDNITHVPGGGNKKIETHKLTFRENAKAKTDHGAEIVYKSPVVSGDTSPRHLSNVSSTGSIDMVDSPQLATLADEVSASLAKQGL
Chain of Tau-SrcSH3 interaction (P10636 other isoform, or with tags, fused parts or gaps): as above
Chain of Tau-BIN1SH3 interaction (P10636 other isoform, or with tags, fused parts or gaps): as above

In general, inhibition refers to the relative decrease from the control value, in per cent. Take `O=C(CN1CCOc2ccccc21)Nc1nnc(-c2ccccn2)[nH]1` [compound no. 69]: the “Tau, Fyn (and GAPDH) levels in primary neurons” value with Tau, Fyn is listed as “did not lower Tau or Fyn levels; also recorded: does not reduce Tau, Fyn, or GAPDH levels”. Besides, the “Tau-FynSH3 interaction, Tau-Flag PLA (in words)” value at Tau-FynSH3 interaction (15 μM, HEK-293 cells) is “inhibited”. In addition, at Tau-FynSH3 interaction (HEK293, HEK-293 cells), testing at 15 µM gave an inhibition of 37%. Further, the “Tau-SrcSH3 interaction, Tau-Flag PLA” value at Tau-SrcSH3 interaction is recorded as “slightly but insignificantly inhibited; also recorded: does not inhibit Tau-SrcSH3 interaction”. Also, the “Tau-BIN1SH3 interaction, Tau-Flag PLA” value at Tau-BIN1SH3 interaction is recorded as “moderately inhibited; also recorded: inhibits Tau-BIN1SH3 interaction”. Further, in the assay on primary neurons, the “Aβ-induced network hyperexcitability, multi-electrode array” value is “prevented Aβ-induced network8hyperexcitability at both 3 and 15 μM; also recorded: ameliorates Aβ-induced network hyperexcitability”.
